Source: patent publication US20140162955A1, “Antagonizing Heparin With Salicylamide Compounds And Histamine Blocking Agents” (CELLCEUTIX CORPORATION, priority 2012, published 2014)

Tested on: anesthetized rats
Test: Cardiovascular effects (blood pressure, heart rate) in anesthetized rats pretreated with heparin and histamine antagonists or NO synthase inhibitor
Assay type: in vivo, rat
Conditions: for blocking of blood pressure reductions caused by IV infusion of Compound 100: pretreatment at T = -15 minutes, Compound 100 at 8 and 16 mg/kg, anesthetized rat
Method: A purpose of this study was to evaluate the role of histamine or nitric oxide (NO) on the hemodynamic effects of Compound 100 administered by a 10 minute IV infusion in rats by pretreatment with an H1 receptor blocker (diphenhydramine; DPH), an H2 receptor blocker (cimetidine; CIM), or an NO synthase inhibitor (L-NAME). Surgically prepared animals (jugular vein catheter for test article administration and carotid artery catheter for blood pressure/heart rate measurement) were purchased from Charles River Laboratories, Raleigh, N.C. Animals were anesthetized on the day of experimentation with isoflurane (1.8-4%). Blood pressure and heart rate data were collected on a Grass Polygraph recorder. Groups of three or four animals were administered two pretreatments followed by the administration of the vehicle or Compound 100. Dose groups are described in Table 1. Treatment 1 was administered at T=−15 minutes as an intravenous administration of saline, cimetidine or L-Name, a subcutaneous dose of diphenhydramine or a combination of diphenhydramine (s.c.) and cimetidine (i.v.). Saline or heparin were administered at T=−3 minutes by intravenous administration (Treatment 2). Treatment 3 was Compound 100 or sterile water (vehicle) which was administered by a 10 minute intravenous infusion. Blood pressure and heart rate were recorded prior to Treatment 1, 5 and 10 minutes after Treatment 1, 2 minutes following Treatment 2, and at 1, 15, 25, 40, and 70 minutes following Treatment 3. Each recording interval was approximately 1 minute long. [table]

Structure (SMILES) | blood pressure following administration of L-NAME, prior to dosing of test agent (L-NAME 100 mg/kg i.v., before Compound 100) | blocking of blood pressure reductions caused by IV infusion of Compound 100
COC(=O)[C@@H](N)CCCNC(=N)N[N+](=O)[O-] [L-NAME] | increases in blood pressure were evident | ineffective at both Compound 100 dosages
CN/C(=N/CCSCc1nc[nH]c1C)NC#N [Cimetidine, cimetidine] |  | only prevented blood pressure reductions at the 8 mg/kg dose
CN(C)CCOC(c1ccccc1)c1ccccc1 [diphenhydramine] |  | effectively blocks blood pressure reductions
